Laboratory results reported in patent US20230310368A1, “MDMA ENANTIOMERS” (Mind Medicine, Inc., priority 2021, published 2023).
Entries after “also recorded” stand apart in the source; their conditions may differ.

Key:
[1] = system: Fmr1 KO mice; experiment: Three-Chamber Social Interaction Test (TCSIT); type: in vivo, mouse
Method: (§1) Methods. The study was conducted in 10-week-old male Fmr1 KO mice. Animals were dosed per os with vehicle, R(−)-MDMA (8, 17 and 30 mg/kg) or SR-MDMA (8 mg/kg) with a minimum 3-day washout between doses. […] Compounds were administered 30 minutes prior to each behavioral test. Basic statistical analysis was performed. If more than 2 groups were compared with each other, significance was calculated by One-way or Two-way analysis of variance (ANOVA) followed by the Bonferroni post hoc test. In case of non-normally distributed data, significance was calculated by Kruskal-Wallis test followed by Dunn's multiple comparisons test.
To measure sociability, animals were tested in the Three Chamber Social Interaction Test. It consisted of a habituation phase, an approach phase and a recognition phase (FIG. 5).
On the testing day, the test animal was placed in the center of the box and was allowed to explore it for ten minutes with two empty stranger mouse cylinders on each side of the box for habituation.
Social approach: After habituation, the mouse was removed from the box, the box was cleaned with 70% Isopropanol and dried with a hand fan. A sex-matched stranger mouse was placed into the mouse cylinder in the left chamber and the test animal was placed in the center of the box again for ten minutes.
Social recognition: After the social approach, mice were immediately tested for social recognition. The already known mouse stayed in the left chamber and a new mouse was placed under the cylinder in the right chamber. The test mouse was again placed in the middle chamber and, for 10 minutes, it was measured how much time it spent in each chamber and how much time it spent sniffing each mouse. Healthy mice will spend more time with the new mouse due to novelty. Socially disturbed mice might not recognize the already known mouse and spend therefore similar amounts of time with each mouse.
Both social approach and social recognition were recorded and analyzed by using Noldus Ethovision 8.5.
(§2) Methods. The study was conducted in 96 10-week-old male Fmr1 KO mice. Animals were dosed orally with vehicle, R(−)-3,4-MDMA (8, 17 and 30 mg/kg), S-(+)-3,4-MDMA (8 mg/kg) or (±)-3,4-MDMA (8 mg/kg) with a minimum 3-day washout between doses. In the Three-Chamber Social Interaction Test (TCSIT), a stranger animal was placed in one of two wire cylinders in the testing area. The time spent in each of three arenas: the neutral arena, the stranger arena or the empty arena, was assessed (FIG. 5). Animals were evaluated in the Open Field Test (OFT) measuring hyperactivity, locomotor activity, thigmotaxis and grooming duration (FIGS. 7A-7B). In the Ultrasonic Vocalization (USV) test, male mice were exposed to fresh urine from females in the estrous cycle. Vocal emissions were recorded for 5 minutes and analyzed. Compounds were administered 30 minutes before each behavioral test. Significance was calculated by One-way analysis of variance followed by the Bonferroni post hoc test. In non-normally distributed data, Kruskal-Wallis test followed by Dunn's multiple comparisons test was applied.

[2] = system: Fmr1 KO mice; experiment: Ultrasonic Vocalization (USV) test; type: in vivo, mouse; conditions: any dose, oral, 5 minutes recording, P<0.001
Method: as §1
Adult male mice emit Ultrasonic Vocalization (USV) under selected experimental conditions, upon encountering a sexually receptive female or female urine. These vocal emissions are considered an index of emotionality, social interest, and motivation.
To induce the estrous cycle in female mice, mice were subcutaneously treated with 50 μl of ß-estradiol 48 hours prior to testing (time sensitive). […]
On the test day, study animals were habituated in a separate soundproof room. Before recording, each mouse was separated from its home cage, placed in another cage that was covered with fresh bedding, and moved to the next soundproof room equipped with an UltraSoundGate Condenser Microphone (CM16; Avisoft Bioacoustics, Berlin, Germany), connected via an Avisoft UltraSoundGate 416 USB Audio device (Avisoft Bioacoustics) to a personal computer, where acoustic data were recorded with a sampling rate of 250,000 Hz in 16-bit format. […] Vocal emission was recorded for 5 minutes.
For acoustical analysis, recordings were transferred to SASLab Pro (Avisoft Bioacoustics) and a fast Fourier transform was conducted (512 FFT length, 100% frame, Hamming window, and 75% time window overlap). […] The total number of vocalizations and the latency to initiate the first call were extracted and evaluated for the whole 5 minutes of recording.
Methods. […] The time spent in each of three arenas: the neutral arena, the stranger arena or the empty arena, was assessed (FIG. 5). […]

[3] = system: Fmr1 KO mice; experiment: Open Field Test (OFT) including grooming evaluation; type: in vivo, mouse
Method: as §1
Spontaneous activity and anxiety was assessed in the Open Field by evaluating the following parameters: hyperactivity [s], activity [s], distance [m], rearings [s], rearings [n] and grooming behavior. For that purpose, a Plexiglas Open Field (48×48 cm) in combination with a computerized video tracking system (Noldus Ethovision XT 14) was used (FIGS. 7A-7B).
The mice were brought to the room at least 45 minutes before the start of the testing. Each test session lasted for 5 minutes to check the mice's behavior in the new surroundings, as the first minutes of the Open Field test are the most suitable to display the exploration behavior of the animals. After the testing session, the number of fecal boluses was counted, as a measure of emotionality. The Open Field was cleaned with 70% Isopropanol after each mouse to get rid of odor traces. Testing was performed under standard room lighting conditions during the light phase of the circadian cycle.
as §2

[4] = system: dopamine; conditions: background, receptor studies and limited pre-clinical evidence; cited from earlier work
[5] = background, limited pre-clinical evidence; cited from earlier work
[6] = oral, 30 minutes before test, R compared to S or racemate P<0.001

Row | SMILES | Arena Frequency with the stranger ([1]; 8 mg/kg oral) | Interaction Duration with the stranger ([1]; 8 mg/kg oral) | Interaction Index with the stranger ([1]; 8 mg/kg oral) | interaction with the stranger and empty chamber vs. vehicle-treated animals ([1]; 8 mg/kg oral) | number of vocalizations [2] | Arena Frequency with the stranger ([1]; 30 mg/kg oral, P<0.001) | interaction with the stranger and empty chamber vs. vehicle-treated animals ([1]; all three doses (8, 17 and 30 mg/kg) oral, P<0.01) | effect on social interaction compared with S-(+)-3,4-MDMA or (±)-3,4-MDMA ([1]; conclusion of the study) | social approach and interaction ([1]; male Fmr1 KO mice, oral 8, 17 and 30 mg/kg, 30 minutes before test) | number of grooming occasions ([3]; 30 mg/kg oral) | distance moved [3, 6] | hyperactivity [3, 6] | number of grooming occasions ([3]; oral, R 8, 17, 30 mg/kg, S and racemate 8 mg/kg) | efficacy as a releaser of dopamine [4] | hyperthermia [5]
1 | CN[C@@H](C)Cc1ccc2c(c1)OCO2 [S-(+)-3,4-MDMA] | no effect | no effect | no effect | not associated with significant changes | significantly reduced |  |  |  |  |  |  |  |  |  | 
2 | CN[C@H](C)Cc1ccc2c(c1)OCO2 [R(−)-3,4-MDMA, R(−)-3,4-methylenedioxymethamphetamine] |  |  |  |  | significantly reduced | statistically significant | significant difference | more potent | dose-dependently increased | active | significantly lesser effect | significantly lesser effect; also recorded: significantly reduced hyperactivity effects | less efficacious than S-(+)-3,4-MDMA or (±)-3,4-MDMA | low efficacy | does not produce hyperthermia
3 | CNC(C)Cc1ccc2c(c1)OCO2 (racemic) [(±)-3,4-MDMA, S,R(±)-3,4-methylenedioxymethamphetamine] | no effect | no effect | no effect | efficacious only for interaction with the stranger | significantly reduced |  |  |  |  |  |  |  |  |  | 
